Measured values: US20020091086A1, “Peptides that block viral infectivity and methods of use thereof” (priority 1999, published 2002)
Like-named read-outs stand apart in the source and are kept apart here. Marks after values point to notes of the source that are not given here. Peptide text beside a SMILES is read from it.

What was measured:
HIV-1 [1] = conditions: 100 μM, HUT78 cells
Protocol: In experiment 6 (Table 7 and FIG. 1), approximately 200,000 HUT78 cells were infected with HIV-1 at 25 TCID50 to test the inhibitory effect of GPG-NH2, RQG-NH2, KQG-NH2, ALG-NH2, GVG-NH2, VGG-NH2, ASG-NH2, SLG-NH2, and SPT-NH2. The HUT cells were resuspended in lml of RPMI 1640 medium supplemented with 10% (v/v) heat-inactivated fetal bovine serum (FBS, GIBCO), penicillin (100 u/ml), streptomycin (100 u/ml) and Polybrene (Sigma, 2 μg/ml) with or without the presence of the different small peptides (100 μM) mentioned above. Thereafter, the HIV-1 virus was added at 25 TCID50 in a volume of 20 μl. Cells were incubated with the virus at 37° C. for one hour and, subsequently, the cells were pelleted at 170×g for seven minutes. The cells were then washed three times in RPMI medium without peptides at room temperature by cell sedimentation at 170×g for seven minutes, as above. After the final wash, the cells were resuspended in RPMI culture medium containing the peptides in 24-well plate (Costar corporation) and were kept at 37° C. in 5% CO2 with humidity. Culture supernatants were collected when medium was changed at day 4, 7, and 11 post infection and viral p24 production was monitored by using an HIV-1 p24 ELISA kit (Abbott Laboratories, North Chicago, USA).

HIV-1 [2] = conditions: H9 cells; for Day 7 RT HIV-1 / Day 10 RT HIV-1: 100 μM; for HIV-1 infection, result in words: summary of Experiments 1-5
Text: (§1) In this example, the methods that were used to analyze the ability of various tripeptides to inhibit HIV-1, HIV-2, and SIV replication are disclosed. In Experiments 1 and 2, approximately 200,000 H9 cells were infected with HIV-1, HIV-2 or SIV at 25 TCID50 to test the inhibitory effect of the following synthesized tripeptides LKA-NH2, ILK-NH2, GPQ-NH2, GHK-NH2, GKG-NH2, ACQ-NH2, CQG-NH2, ARV-NH2, KAR-NH2, HKA-NH2, GAT-NH2, KAL-NH2, and GPG-NH2. Accordingly, the H9 cells were resuspended with or without the different peptides (approximately 100 μM) in 1 ml of RPMI 1640 medium supplemented with 10% (v/v) heat-inactivated fetal bovine serum (FBS), penicillin (100 u/ml), and streptomycin (100 u/ml), all available through GIBCO, and Polybrene (2 μg/ml), available through Sigma. Thereafter, viruses were added at 25 TCID50 in a volume of 20-30μl. Cells were incubated with virus at 37° C. for 1 hr then pelleted at 170×g for 7 minutes. The cells were then washed three times in RPMI medium without peptides at room temperature and pelleted at 170×g for 7 minutes, as above. After the final wash, the cells were resuspended in RPMI culture medium containing the peptides in a 24-well plate (Costar corporation) and were kept at 37° C. in 5% CO2 with humidity.
(§2) Culture supernatants were collected and analyzed when the medium was changed at 4, 7, 10, and 14 days post infection. To monitor the replication of virus, reverse transcriptase (RT) activity in the supernatants was assayed using a commercially available Lenti-RT activity kit. (Cavidi Tech, Uppsala, Sweden). The amount of RT was determined with the aid of a regression line of standards. The results are presented as absorbance values (OD) and higher absorbance indicates a higher protein concentration and greater viral infection. Syncytium formation was also monitored by microscopic examination.
In Experiment 3, (Table 4), approximately 200,000 H9 cells were infected with HIV-1, HIV-2 or SIV at 25 TCID50 to test the inhibitory effect of different concentrations of peptides GPG-NH2, GKG-NH2 and CQG-NH2 and combinations of these peptides (the indicated concentration corresponds to the concentration of each tripeptide). As above, H9 cells were resuspended with or without the different peptides at varying concentrations in 1 ml of RPMI 1640 medium supplemented with 10% (v/v) heat-inactivated fetal bovine serum (FBS), penicillin (100 u/ml), and streptomycin (100 u/ml), and Polybrene (2 μg/ml). Thereafter, viruses were added at 25 TCID50 in a volume of 20-30 μl. Cells were incubated with the indicated virus at 37° C. for 1 hr then pelleted at 170×g for 7 minutes. The cells were then washed three times in RPMI medium without peptides at room temperature and pelleted at 170×g for 7 minutes, as above. After the final wash, the cells were resuspended in RPMI culture medium containing the peptides in a 24-well plate (Costar corporation) and kept at 37° C. in 5% CO2 with humidity.
Culture supernatants were collected when the medium was changed at 4, 7, and 11 days post infection. As above, the replication of each virus was monitored by detecting reverse transcriptase (RT) activity in the supernatants using the Lenti-RT activity kit. (Cavidi Tech). The amount of RT was determined with the aid of a regression line of standards. The results are presented as absorbance values (OD) and higher absorbance indicates a higher protein concentration and greater viral infection.
In Experiment 4, (Table 5) approximately 200,000 H9 cells were infected with HIV-1 at 25 TCID50 to test the inhibitory effect of different concentrations of peptides GPG-NH2, GKG-NH2 and CQG-NH2 and combinations of these peptides (the indicated concentration corresponds to the total concentration of tripeptide).

SIV = SIV infectivity assay in H9 cells, RT activity in supernatant; assay type: cell-based
HIV-1 [3] = conditions: H9 cells; for HIV-1 Syncytia: 100 μM; for HIV-1 syncytia formation, result in words: summary of Experiments 1-2
Text: as §1, §2

HIV-2 = HIV-2 infectivity assay in H9 cells, RT activity in supernatant; assay type: cell-based

| Molecule | p24 (HIV-1 [1]; Experiment 6, Day 7 HIV-1) | reduction (%) (HIV-1 [1]; Experiment 6, Day 7 HIV-1) | HIV-1 infection, result in words (HIV-1 [1]; summary of Experiment 6) | Day 7 RT HIV-1 (HIV-1 [2]; Experiment 1) | Day 10 RT HIV-1 (HIV-1 [2]; Experiment 1) | Day 7 RT HIV-1 (HIV-1 [2]; Experiment 2) | Day 10 RT HIV-1 (HIV-1 [2]; Experiment 2) | HIV-1 infection, result in words (HIV-1 [2]) | Day 7 RT SIV (SIV; Experiment 1, 100 μM) | Day 10 RT SIV (SIV; Experiment 1, 100 μM) | Day 7 RT SIV (SIV; Experiment 2, 100 μM) | Day 10 RT SIV (SIV; Experiment 2, 100 μM) | HIV-1 Syncytia (HIV-1 [3]; Experiment 1) | HIV-1 Syncytia (HIV-1 [3]; Experiment 2) | Day 7 RT HIV-2 (HIV-2; Experiment 1, 100 μM) | Day 10 RT HIV-2 (HIV-2; Experiment 1, 100 μM) | Day 7 RT HIV-2 (HIV-2; Experiment 2, 100 μM) | Day 10 RT HIV-2 (HIV-2; Experiment 2, 100 μM) | HIV-1 syncytia formation, result in words (HIV-1 [3]) |
| --- | --- | --- | --- | --- | --- | --- | --- | --- | --- | --- | --- | --- | --- | --- | --- | --- | --- | --- | --- |
| CC(C)C[C@H](NC(=O)[C@H](C)N)C(=O)NCC(N)=O [ALG-NH2, alanyl-leucyl-glycine amide] (H-Ala-Leu-Gly-NH2) | 42 pg/mL | ~100% | inhibited and/or prevented HIV-1 infection | – | – | – | – | – | – | – | – | – | – | – | – | – | – | – | – |
| Ala-Arg-Val [ARV-NH2] | – | – | – | 0.156 OD | 1.528 OD | 0.618 OD | 2.829 OD | failed to prevent infection | 0.210 OD | 1.172 OD | 0.212 OD | 3.004 OD | pos | pos | 3.380 OD | 3.003 OD | 2.237 OD | 2.628 OD | – |
| Ala-Cys-Gln [ACQ-NH2] | – | – | – | 0.117 OD | 0.904 OD | 0.606 OD | 2.831 OD | did not prevent HIV infection | 1.241 OD | 2.746 OD | 0.612 OD | 2.606 OD | pos | pos | 3.418 OD | 2.753 OD | 1.661 OD | 2.505 OD | – |
| Gly-Ala-Thr [GAT-NH2] | – | – | – | 0.116 OD | 1.565 OD | 0.776 OD | 2.800 OD | failed to prevent infection | 0.892 OD | 2.343 OD | 0.572 OD | 2.776 OD | pos | pos | 3.461 OD | 2.835 OD | 1.707 OD | 2.565 OD | failed to prevent infection and HIV-1 syncytia formation |
| Gly-His-Lys [GHK-NH2] | – | – | – | 0.289 OD | 2.151 OD | 0.829 OD | 3.013 OD | failed to prevent infection | 0.097 OD | 2.384 OD | 0.396 OD | 2.394 OD | pos | pos | 3.522 OD | 2.931 OD | 1.936 OD | 2.418 OD | failed to prevent infection and HIV-1 syncytia formation |
| Gly-Pro-Gln [GPQ-NH2] | – | – | – | 0.204 OD | 1.965 OD | 0.884 OD | 2.848 OD | did not prevent HIV infection | 1.542 OD | 2.176 OD | 0.574 OD | 2.319 OD | pos | pos | 3.692 OD | 2.734 OD | 1.511 OD | 2.382 OD | failed to prevent infection and HIV-1 syncytia formation |
| His-Lys-Ala [HKA-NH2] | – | – | – | 0.312 OD | 2.546 OD | 1.081 OD | 2.794 OD | did not prevent HIV infection | 0.416 OD | 2.520 OD | 0.455 OD | 2.623 OD | pos | pos | 3.408 OD | 2.669 OD | 1.678 OD | 2.560 OD | – |
| Iso-Leu-Lys [ILK-NH2] | – | – | – | 0.365 OD | 2.033 OD | 0.581 OD | 2.950 OD | – | 3.180 OD | 2.255 OD | 0.515 OD | 2.632 OD | pos | pos | 3.467 OD | 2.791 OD | 1.692 OD | 2.557 OD | – |
| Leu-Lys-Ala [LKA-NH2] | – | – | – | 0.568* OD | 2.429 OD | 0.894* OD | 2.989 OD | did not prevent HIV infection | 3.577 OD | 2.452 OD | 0.724 OD | 2.797 OD | pos | pos | 3.649 OD | 2.769 OD | 1.689 OD | 2.637 OD | – |
| Lys-Ala-Arg [KAR-NH2] | – | – | – | 0.380 OD | 2.779 OD | 0.753 OD | 2.928 OD | – | 0.266 OD | 1.722 OD | 1.034 OD | 2.672 OD | pos | pos | 3.419 OD | 2.640 OD | 1.904 OD | 2.742 OD | – |
| Lys-Ala-Leu [KAL-NH2] | – | – | – | 0.246 OD | 1.995 OD | 0.999 OD | 2.791 OD | failed to prevent infection | 1.091 OD | 2.524 OD | 0.511 OD | 2.663 OD | pos | pos | 3.372 OD | 2.749 OD | 1.757 OD | 2.383 OD | – |
